Assay results: article PMC7175131, “Synthesis, In Vitro Evaluation and Molecular Docking of the 5-Acetyl-2-aryl-6-hydroxybenzo[b]furans against Multiple Targets Linked to Type 2 Diabetes” (Biomolecules, 2020)
Several values for one entry are separate records, joined by “and”; a condition that tells them apart may be missing. Identical values can stand only once. Like-named read-outs stand apart in the source and are kept apart here.

Tests used:
[1] = DPPH radical scavenging assay; settings: DPPH 0.3 mM in methanol, 45 min in the dark, 512 nm
Experimental: Antioxidant activities of compounds 2a–h against ascorbic acid (Sigma Aldrich, Saint Louis, Missouri, USA) as a positive control were evaluated using 2,2-diphenyl-1-picrylhydrazyl (DPPH) radical scavenging assay following a reported method by Zhu et al.. Triplicate solutions of the test compounds and the control in methanol (concentrations ranging from 0 µM to 50 µM) were treated with a solution of DPPH (0.3 mM) in methanol. The mixtures were incubated in the dark for 45 min and the absorbances were recorded at the wavelength of 512 nm using Varioskan flash microplate spectrophotometer reader. The inhibition was calculated in terms of percentage using the formula below, DPPH radical scavenged (%)=AbC − AbS/AbC×100, where AbC is absorbance of control and AbS the absorbance of the test sample. A graph of percentage inhibition of free radical activity was plotted against concentration of the sample.

PTP1B [2] = molecular target: T1, PTP1B (Homo sapiens, UniProt P18031); experiment: PTP1B inhibition assay (pNPP substrate); format: biochemical; settings: Hepes buffer pH 7.0, triplicate
T1 construct: purchased Sigma Aldrich, Modderfontein, South Africa
T1 sequence (P18031 1-435): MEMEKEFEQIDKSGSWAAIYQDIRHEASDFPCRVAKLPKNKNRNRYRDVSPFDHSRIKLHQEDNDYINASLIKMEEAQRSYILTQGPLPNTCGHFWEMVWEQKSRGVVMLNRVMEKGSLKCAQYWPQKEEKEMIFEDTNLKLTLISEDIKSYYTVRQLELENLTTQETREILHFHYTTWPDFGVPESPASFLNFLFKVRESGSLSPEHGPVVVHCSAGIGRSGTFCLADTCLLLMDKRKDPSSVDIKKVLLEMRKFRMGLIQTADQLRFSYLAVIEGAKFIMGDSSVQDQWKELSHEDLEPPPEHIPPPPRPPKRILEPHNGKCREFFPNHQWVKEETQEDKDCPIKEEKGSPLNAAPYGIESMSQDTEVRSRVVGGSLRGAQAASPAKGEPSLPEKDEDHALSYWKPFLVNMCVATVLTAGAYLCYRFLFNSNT
Experimental: Activity of PTPase (Sigma Aldrich, Modderfontein, South Africa) was evaluated using p-nitrophenylphosphate (PNPP) as the substrate. […] The reaction was stopped by the addition of 30 μL of 3 M NaOH and absorbance was determined at wavelength of 410 nm. Control tubes without the enzyme were ran in parallel to nullify the nonenzymatic reaction and for calculating the concentration of p-nitrophenolate ions produced in the reaction mixture.

[3] = molecular target: T2, α-Glucosidase type 1 from baker's yeast (Saccharomyces cerevisiae, UniProt P53341); experiment: biochemical; format: biochemical
T2 construct: purchased Sigma Aldrich (Pty) Ltd
T2 sequence (P53341 whole entry): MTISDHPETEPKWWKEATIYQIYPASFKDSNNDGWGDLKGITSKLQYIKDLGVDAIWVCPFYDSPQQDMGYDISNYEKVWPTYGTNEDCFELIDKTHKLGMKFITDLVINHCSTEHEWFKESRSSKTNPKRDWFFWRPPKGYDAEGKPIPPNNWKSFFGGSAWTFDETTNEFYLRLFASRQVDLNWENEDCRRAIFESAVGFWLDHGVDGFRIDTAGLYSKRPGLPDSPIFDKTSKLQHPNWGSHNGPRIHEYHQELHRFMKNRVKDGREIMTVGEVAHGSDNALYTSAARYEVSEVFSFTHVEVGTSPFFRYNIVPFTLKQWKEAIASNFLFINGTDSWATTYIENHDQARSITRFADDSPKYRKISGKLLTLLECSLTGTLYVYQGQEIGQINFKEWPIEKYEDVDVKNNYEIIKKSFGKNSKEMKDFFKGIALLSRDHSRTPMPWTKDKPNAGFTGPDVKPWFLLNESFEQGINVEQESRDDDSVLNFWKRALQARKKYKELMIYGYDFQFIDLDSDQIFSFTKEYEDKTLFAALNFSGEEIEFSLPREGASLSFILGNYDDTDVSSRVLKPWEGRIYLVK
Experimental: The IC50 values of these compounds were calculated through the nonlinear regression analysis using Origin Pro 9.0 (OriginLab Corporation, Northampton, MA, USA) and are expressed as the mean standard deviation (SD) of three distinct experiments.

[4] = molecular target: T3, human recombinant β-secretase (Homo sapiens, UniProt P56817); experiment: β-secretase (BACE-1) FRET enzyme assay; format: biochemical; settings: for IC50: FRET, sodium acetate pH 4.5, 60 min, triplicate
T3 construct: purchased Pan Vera / Thermo Fisher Scientific Corporation; host or cells: baculovirus expression
T3 sequence (P56817 46-501): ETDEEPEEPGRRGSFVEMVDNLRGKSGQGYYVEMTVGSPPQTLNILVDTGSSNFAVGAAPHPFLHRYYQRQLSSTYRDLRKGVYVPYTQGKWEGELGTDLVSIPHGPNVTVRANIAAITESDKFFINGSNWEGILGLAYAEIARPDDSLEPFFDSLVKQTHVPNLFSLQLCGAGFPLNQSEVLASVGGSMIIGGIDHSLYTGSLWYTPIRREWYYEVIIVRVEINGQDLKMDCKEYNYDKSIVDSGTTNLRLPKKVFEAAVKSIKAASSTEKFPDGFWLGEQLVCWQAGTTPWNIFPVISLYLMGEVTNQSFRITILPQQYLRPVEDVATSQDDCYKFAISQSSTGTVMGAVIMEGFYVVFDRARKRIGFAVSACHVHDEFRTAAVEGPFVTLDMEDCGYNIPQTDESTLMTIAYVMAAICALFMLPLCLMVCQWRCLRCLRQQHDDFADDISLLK
Experimental: The assays were conducted in triplicates. […] The percentage inhibition was calculated using the following equation: Inhibition (%)=1–(S –S0)/(C –C0) ×100, where C is the fluorescence of control (enzyme, assay buffer and substrate) after 60 min of incubation, C0 is the fluorescence of control at time 0, S is the fluorescence of tested samples (enzyme, sample solution and substrate) after 60 min. of incubation and S0 the fluorescence of the tested samples at time 0. The IC50 values were calculated with Origin Pro 9.0. (OriginLab Corporation).

cyclooxygenase-2 (COX-2) = molecular target: T4, cyclooxygenase-2 (COX-2) (Homo sapiens, UniProt P35354); experiment: COX-2 inhibitor screening kit assay; settings: COX-2 IC50, means from duplicate runs
T4 sequence (P35354 18-604): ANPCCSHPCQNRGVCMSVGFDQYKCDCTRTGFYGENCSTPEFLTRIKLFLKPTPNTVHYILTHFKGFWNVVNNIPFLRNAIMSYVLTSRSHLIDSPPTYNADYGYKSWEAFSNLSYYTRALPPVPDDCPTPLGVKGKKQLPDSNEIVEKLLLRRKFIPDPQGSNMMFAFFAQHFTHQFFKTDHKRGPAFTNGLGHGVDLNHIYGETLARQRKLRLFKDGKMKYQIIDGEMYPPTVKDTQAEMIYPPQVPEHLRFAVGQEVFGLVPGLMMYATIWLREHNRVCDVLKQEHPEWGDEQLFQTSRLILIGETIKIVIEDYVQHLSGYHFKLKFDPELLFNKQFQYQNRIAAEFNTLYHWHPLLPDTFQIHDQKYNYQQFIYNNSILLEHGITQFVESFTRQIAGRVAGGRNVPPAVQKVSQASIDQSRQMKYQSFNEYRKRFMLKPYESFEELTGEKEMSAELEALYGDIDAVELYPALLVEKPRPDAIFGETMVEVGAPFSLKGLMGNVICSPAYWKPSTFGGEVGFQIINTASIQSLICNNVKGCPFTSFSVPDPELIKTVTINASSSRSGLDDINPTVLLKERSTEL
Experimental: The absorbance was measured using a Varioskan flash microplate spectrophotometer and the IC50 values were calculated with the aid of Origin Pro 9.0.

α-glucosidase = molecular target: T5, α-glucosidase (Saccharomyces cerevisiae, UniProt P53341); experiment: Kinetic studies towards α-glucosidase inhibition (Lineweaver-Burk and Dixon plots); format: biochemical; settings: for mode of inhibition of α-glucosidase: Lineweaver-Burk and Dixon plots; for Ki: inhibitor 0.5-20 µM, substrate 0–25 µM, read-out: Ki (Dixon plot), α-glucosidase
T5 construct: purchased Sigma Aldrich (Pty) Ltd
T5 sequence (P53341 whole entry): as the sequence (P53341 whole entry) above
Experimental: The α-glucosidase inhibitory activity of compounds 2a–h was evaluated in triplicates in a 96 well microplate following a protocol by Shi et al.. […] Then 20 µL of 2 mM PNP-G was added and the absorbances were recorded at a wavelength of 405 nm using Varioskan flash microplate spectrophotometer (Thermo Scientific, Waltham, MA, USA). The IC50 values of these compounds were calculated through the nonlinear regression analysis using Origin Pro 9.0 (OriginLab Corporation, Northampton, MA, USA) and are expressed as the mean standard deviation (SD) of three distinct experiments.
The kinetics studies on compounds 2c and 2h were performed according to the reaction conditions in 2.3.1 with inhibitors of various concentrations (0.5, 5, 10, 20 µM) and the ranges of final substrate concentration were 0–25 µM. The type of inhibition was determined by using Lineweave-Burk plot (the inverse of velocity (1/v) against the inverse of the substrate concentration (1/[S]). The inhibitor constant was obtained by Dixon plot (the inverse of velocity (1/v) against concentration of inhibitor at each substrate concentration).

PTP1B [5] = molecular target: T1, PTP1B; experiment: Kinetic studies towards PTP1B inhibition (Lineweaver-Burk and Dixon plots); format: biochemical; settings: for mode of inhibition of PTP1B: Lineweaver-Burk and Dixon plots; for Ki: inhibitor 0.5-20 µM, substrate 0-25.0 µM, read-out: Ki (Dixon plot), PTP1B
Experimental: The PTP1B inhibitory activity of compounds 2a–h and sodium orthovanadate was evaluated in triplicates in a 96 well microplate following a protocol by Goldstein et al.. Activity of PTPase (Sigma Aldrich, Modderfontein, South Africa) was evaluated using p-nitrophenylphosphate (PNPP) as the substrate. A 10 μL of PTP1B solution (0.02 U/mL) in 50 mM Hepes buffer (pH 7.0) with different concentrations (0.5, 10, 25, 50, 100 μM) of the test compounds and the reference standard were incubated at 25 °C for 10 min. After pre-incubation, 25 μL of HEPES buffer and 25 μL of 2 mM (pNPP) were added and the mixtures were incubated at 37 °C for 30 min. The reaction was stopped by the addition of 30 μL of 3 M NaOH and absorbance was determined at wavelength of 410 nm. Control tubes without the enzyme were ran in parallel to nullify the nonenzymatic reaction and for calculating the concentration of p-nitrophenolate ions produced in the reaction mixture. A molar extinction coefficient of 1.78 ×10^4 M^-1 cm^-1 was used to calculate the concentration of p-nitrophenolate ions produced in the reaction mixture.
Compounds 2c and 2h were subjected to kinetic analysis following the procedure outlined in 2.3.2 with inhibitors of various concentrations (0.5, 5, 10, 20 µM). The assay was performed with substrate of various concentrations (0, 2.5, 6.25, 12.5, 25.0 µM). The absorbance due to the p-nitrophenol produced by dephosphorylation of PTP1B was measured at 405 nm. The kinetic parameters were determined using Lineweaver-Burk double-reciprocal plots and the Dixon the Dixon plot method at increasing substrate and compound concentrations.

[6] = yeast enzyme, PNP-G substrate, pH 6.8, 37 °C, mean ± SD, triplicate, read-out: IC50 α-Glucosidase

Row | Structure (SMILES) | IC50 [1] | IC50 (PTP1B [2]) [µM] | IC50 [3] [µM] | activity against α-glucosidase (in words) ([3]; tested 0–100 μM) | IC50 [4] [µM] | IC50 [3, 6] [µM] | IC50 (cyclooxygenase-2 (COX-2)) | mode of inhibition of α-glucosidase (α-glucosidase) | Ki (α-glucosidase) [µM] | mode of inhibition of PTP1B (PTP1B [5]) | Ki (PTP1B [5]) [µM] | melting point [°C] | activity against β-secretase (in words) [4] | Vmax, α-glucosidase in presence of inhibitor (α-glucosidase; unchanged with inhibitor concentration)
1 | O=C1O[C@H]([C@@H](O)CO)C(O)=C1O [Ascorbic acid, ascorbic acid, reference compound] | 10.7 ± 0.42 µM | – | – | – | – | – | – | – | – | – | – | – | – | –
2 | CC(=O)c1cc2cc(-c3ccccc3)oc2cc1O [Compound 2a, 1-[6-Hydroxy-2-phenylbenzofuran-5-yl]ethanone] | 12.2 ± 2.1 µM | 23 ± 0.23 | > 100 | No activity | 63.15 ± 0.07 | – | – | – | – | – | – | – | – | –
3 | CC(=O)c1cc2cc(-c3cccc(F)c3)oc2cc1O [Compound 2b, 1-[2-(3-Fluorophenyl)-6-hydroxybenzofuran-5-yl]ethanone] | 46.5 ± 0.24 µM | 24.5 ± 0.29 | – | – | > 100 | 4.65 ± 0.13 | – | – | – | – | – | – | – | –
4 | CC(=O)c1cc2cc(-c3ccc(F)cc3)oc2cc1O [Compound 2c, 1-[2-(4-Fluorophenyl)-6-hydroxybenzofuran-5-yl]ethanone] | 9.8 µM and 9.82 µM | 17.8 | – | – | > 100 | 0.11 ± 0.04 | 2.8 µM and 2.81 µM | non-competitive | 15.09 ± 0.03 | mixed-type | 5.2 ± 0.1 | – | – | –
5 | CC(=O)c1cc2cc(-c3cccc(Cl)c3)oc2cc1O [Compound 2d, 1-[2-(3-Chlorophenyl)-6-hydroxybenzofuran-5-yl]ethanone] | 15.5 ± 0.21 µM | 29.3 | – | – | > 100 | > 100 | – | – | – | – | – | – | – | –
6 | CC(=O)c1cc2cc(-c3ccc(Cl)cc3)oc2cc1O [Compound 2e, 1-[2-(4-Chlorophenyl)-6-hydroxybenzofuran-5-yl]ethanone] | 11.3 ± 1.2 µM | 21.5 | 64.9 ± 0.05 | – | > 100 | – | – | – | – | – | – | 170 to 173 | – | –
7 | CC(=O)c1cc2cc(-c3ccc(C)cc3)oc2cc1O [Compound 2f, 1-[6-Hydroxy-2-(4-tolyl)benzofuran-5-yl]ethanone] | 26.7 ± 0.62 µM | 26.7 | 14.05 ± 0.07 | – | > 100 | – | – | – | – | – | – | 169 to 172 | inactive | –
8 | COc1ccc(-c2cc3cc(C(C)=O)c(O)cc3o2)cc1 [Compound 2g, 1-[6-Hydroxy-2-(4-methoxyphenyl)benzofuran-5-yl]ethanone] | 16.8 ± 0.38 µM | 31.9 | – | – | 27.3 ± 1.1 | 0.56 ± 0.24 | 2.3 µM and 2.33 µM | – | – | – | – | – | – | –
9 | COc1cc(OC)cc(-c2cc3cc(C(C)=O)c(O)cc3o2)c1 [Compound 2h, 1-[6-Hydroxy-2-(3,5-dimethoxyphenyl)benzofuran-5-yl]ethanone] | 6.28 ± 0.33 µM | 11.9 ± 0.35 | – | – | 25.8 ± 0.08 | 0.78 ± 0.31 | 99.6 ± 2.6 µM | mixed mode | 5.11 ± 0.42 | non-competitive | 0.49 ± 0.01 | 155 to 156 | – | 0.19
